Source: the NIST ThermoML archive (doi:10.1021/je400839x)

Experiments:
[1] = for viscosity / speed of sound / mass density: 101 kPa, Liquid; for viscosity: Concentric cylinders viscometry; for speed of sound: Pulse-echo method; for mass density: Vibrating tube method
[2] = xn = mol fraction of the nth substance listed; settings: 101 kPa, Liquid, x2 = 0; for viscosity: Concentric cylinders viscometry; for mass density: Vibrating tube method

CC(CC(C)(C)C)CC(C)(C)C [2,2,4,6,6-pentamethylheptane]
[1]
Settings	mass density [kg/m3]	speed of sound [m/s]	viscosity [mPa·s]
293.15 K	745.5	1204	1.29
303.15 K	738.2	1164.9	1.1
313.15 K	730.9	1126.7	0.941
323.15 K	723.5	1089.3	0.827
333.15 K	716.1	–	0.726
343.15 K	708.6	–	0.643
353.15 K	700.9	–	0.573
363.15 K	693.2	–	0.515
373.15 K	685.5	–	0.467

Settings	surface tension liquid-gas [mN/m]
[1], 294 K, Pendant drop shape	21.8

CCCCCCCCCCCCCCCC [hexadecane]
[1]
Settings	mass density [kg/m3]	viscosity [mPa·s]
293.15 K	773.7	3.44
303.15 K	766.8	2.72
313.15 K	759.9	2.21
323.15 K	752.9	1.82
333.15 K	746	1.53
343.15 K	739	1.31
353.15 K	731.9	1.13
363.15 K	724.8	0.99
373.15 K	717.7	0.876

CCCCCCCCCCCCCCCC [hexadecane] + CC(CC(C)(C)C)CC(C)(C)C
[2]
Settings	mass density [kg/m3]	viscosity [mPa·s]
293.15 K	773.7	3.44
303.15 K	766.8	2.72
313.15 K	759.9	2.21
323.15 K	752.9	1.82
333.15 K	746	1.53
343.15 K	739	1.31
353.15 K	731.9	1.13
363.15 K	724.8	0.99
373.15 K	717.7	0.876
